# Columns and labels:
# Format in all cases: physicochemical
# [1] = Angle of repose; conditions: for Angle of Repose θ: one side of the pile; for Angle of Repose φ: other side of the pile
# Protocol: The angle of repose is the angle formed by the horizontal base of the surface and the edge of a cone-like pile of granules. It is calculated from the following equation: […]
# The angle of repose was measured by slowly pouring approximately 1 g of sample through a funnel with a 3/16″ inner diameter of the outlet. The powder then fell 1 11/16″ to land on the surface of an overturned crystallization dish on which a pile of powder formed. A picture was taken of the pile after addition of all of the material. The angle between the dish surface and the surface of the pile was measure via a protractor on the pictures. Care was taken to replicate the same positions and fall distances in the set up between different samples.
# [2] = Bulk and tap densities, Carr's Index, Hausner Ratio
# Protocol: The powder was added to a pre-weighed 10 mL graduated cylinder through a funnel that was not in direct contact with the graduated cylinder to avoid transference of vibrations. Powder was added until a 10 mL volume was reached and then the graduated cylinder with powder was weighed. The bulk density was calculated by
# [formula] The same sample in the graduated cylinder was tapped for the following sequence: 100, 150, 250, 250 taps. The volume was measured after each interval. The tapped density was calculated by
# The Carr's Index was calculated according to the following equation: […]
# The Hausner Ratio was calculated with the following equation: […]
# [3] = Accelerated stability, open vials in LDPE bag, 40° C./75% RH, five weeks
# Protocol: Upon removal from the chamber, the samples were physically characterized by appearance, KF, TGA, DSC, XRD and PLM. The samples were also analyzed by HPLC for chromatographic purity, chiral integrity and potency. Where applicable, the data presented in the stability portion also includes the original T=0 data for comparison purposes. The data can be seen in Tables 25-29 and FIGS. 40-44.
# [4] = Dynamic vapor sorption / humidity exposure (IGAsorp, 25° C.); conditions: at 80% RH, hydrogen sulfate
# Protocol: • 1. The hygroscopicity was studied at 25° C. using an IGAsorp analyzer. • 2. About 15 mg of sample was placed in a tared mesh sample holder at an initial ambient room humidity setting of ˜35%. • 3. A total wet/dry nitrogen flow rate of 250 cc/min is used throughout the study. • 4. […] The maximum time allowed at any one humidity set point was 120 min. The sample was maintained under dry N2 after the cycle was completed. Percent weight gain was calculated based on the dry weight basis.
# [5] = Stability on aluminum slide at 40° Celsius/75% RH; conditions: I-HS 10 days; HCl after 1 hour; HBr after 2 weeks; mesylate overnight
# [6] = Dynamic vapor sorption (DVS-1 system); conditions: for DVS (outcome): HCl: at 50-60% RH
# Protocol: For the DVS measurement a sample of crystalline form (I-HS) was cycled through changing humidity conditions to determine its hygroscopicity. The sample was analyzed using a Surface Measurement System DVS-1 Dynamic Vapor Sorption System. […] Data was collected in 1 minute intervals. Nitrogen was used as the carrier gas. […] After completion of the sorption cycle, the sample was dried using the same procedure, but all the way down to 0% RH and finally taken back to the starting point of 20% RH. The weight change during the sorption/desorption cycles were plotted, allowing for the hygroscopic nature of the sample to be determined.
smiles,measurement,setting,value
O=C(Nc1cnn2ccc(N3CCC[C@@H]3c3cc(F)ccc3F)nc12)N1CC[C@H](O)C1 [L-ARR10-118],Angle of Repose Average,[1],50.28 °
same,Angle of Repose θ,[1],50.28 °
same,Angle of Repose φ,[1],50.28 °
same,Bulk Density,[2],594.8 mg/mL
same,Tapped Density,[2],762.6 mg/mL
O=C(Nc1cnn2ccc(N3CCC[C@@H]3c3cc(F)ccc3F)nc12)N1CC[C@H](O)C1.O=S(=O)(O)O [AR00457470-33],Angle of Repose Average,[1],45.70 °
same,Angle of Repose θ,[1],47.79 °
same,Angle of Repose φ,[1],43.6 °
same,Bulk Density,[2],423.6 mg/mL
same,Tapped Density,[2],622.9 mg/mL
"O=C(Nc1cnn2ccc(N3CCC[C@@H]3c3cc(F)ccc3F)nc12)N1CC[C@H](O)C1.O=S(=O)(O)O [AM(HS)1, (S)—N-(5-((R)-2-(2,5-difluorophenyl)-pyrrolidin-1-yl)-pyrazolo[1,5-a]pyrimidin-3-yl)-3-hydroxypyrrolidine-1-carboxamide hydrogen sulfate]",Appearance,"[3]; 40° C./75% RH, 5 wks",Orange Powder
same,Assay (HPLC),"[3]; 40° C./75% RH, 5 wks",80.3%
same,Chiral Potency (HPLC),"[3]; 40° C./75% RH, 5 wks",99.6%
same,KF (water content),"[3]; 40° C./75% RH, 5 wks",0.56 w/w %
same,"Peak Area Percent, RRT 0.793","[3]; 40° C./75% RH, 5 wks",0.00
same,"Peak Area Percent, RRT 0.863","[3]; 40° C./75% RH, 5 wks",1.04
same,"Peak Area Percent, RRT 0.981","[3]; 40° C./75% RH, 5 wks",0.12
same,"Peak Area Percent, RRT 1.000","[3]; 40° C./75% RH, 5 wks",98.83
same,"Peak Area Percent, RRT 1.535","[3]; 40° C./75% RH, 5 wks",0.00
same,Total Impurities (HPLC),"[3]; 40° C./75% RH, 5 wks",1.16%
same,change of API chemical purity,"[3]; 40° C./75% RH, five weeks",did not change significantly
same,Appearance,[3]; time point 0 wks,Yellow Powder
same,Assay (HPLC),[3]; time point 0 wks,79.5%
same,Chiral Potency (HPLC),[3]; time point 0 wks,99.6%
same,KF (water content),[3]; time point 0 wks,2.00 w/w %
same,"Peak Area Percent, RRT 0.793",[3]; time point 0 wks,0.00
same,"Peak Area Percent, RRT 0.863",[3]; time point 0 wks,0.98
same,"Peak Area Percent, RRT 0.981",[3]; time point 0 wks,0.12
same,"Peak Area Percent, RRT 1.000",[3]; time point 0 wks,98.89
same,"Peak Area Percent, RRT 1.535",[3]; time point 0 wks,0.00
same,Total Impurities (HPLC),[3]; time point 0 wks,1.10%
same,mass gained in DVS,[4],greater than 13%
"Cl.O=C(Nc1cnn2ccc(N3CCC[C@@H]3c3cc(F)ccc3F)nc12)N1CC[C@H](O)C1 [HCl, (S)—N-(5-((R)-2-(2,5-difluorophenyl)pyrrolidine-1-yl)pyrazolo[1,5-a]pyrimidin-3-yl)-3-hydroxypyrrolidine-1-carboxamide hydrochloride]",Stability at 40° Celsius/75% RH (aluminum slide),[5],form change
same,DVS (outcome),[6],form change
same,DVS weight gain,[6]; at 50% RH,~1% gain at 50%
"O=C(Nc1cnn2ccc(N3CCC[C@@H]3c3cc(F)ccc3F)nc12)N1CC[C@H](O)C1.O=S(=O)(O)O [AM(HS)2, (S)—N-(5-((R)-2-(2,5-difluorophenyl)-pyrrolidin-1-yl)-pyrazolo[1,5-a]pyrimidin-3-yl)-3-hydroxypyrrolidine-1-carboxamide hydrogen sulfate]",mass gained in DVS,[4],~12%
"Br.O=C(Nc1cnn2ccc(N3CCC[C@@H]3c3cc(F)ccc3F)nc12)N1CC[C@H](O)C1 [HBr, (S)—N-(5-((R)-2-(2,5-difluorophenyl)pyrrolidin-1-yl)pyrazolo[1,5-a]pyrimidin-3-yl)-3-hydroxypyrrolidine-1-carboxamide hydrobromide]",Stability at 40° Celsius/75% RH (aluminum slide),[5],amorphous
same,DVS (outcome),[6],(deliquesced)
same,DVS weight gain,[6]; at 80% RH,~3.9% gain at 80%
same,DVS weight gain,[6]; at 90% RH,~25% gain at 90%
"CS(=O)(=O)O.O=C(Nc1cnn2ccc(N3CCC[C@@H]3c3cc(F)ccc3F)nc12)N1CC[C@H](O)C1 [Mesylate, (S)—N-(5-((R)-2-(2,5-difluorophenyl)pyrrolidin-1-yl)pyrazolo[1,5-a]pyrimidin-3-yl)-3-hydroxypyrrolidine-1-carboxamide methanesulfonate]",Stability at 40° Celsius/75% RH (aluminum slide),[5],Deliquesced
same,DVS (outcome),[6],(crystalline)
same,DVS weight gain,[6]; at 80% RH,~9% gain at 80%
same,DVS weight gain,[6]; at 90% RH,~50% gain at 90%
